Entries after “also recorded” stand apart in the source; their conditions may differ. Where a SMILES comes first, the peptide text is derived from it. Bridges are numbered along the chain shown (N, C = ends).
Key:
[1] = target: α7 nAChR (Rattus norvegicus, UniProt Q05941); experiment: cell-based; type: cell-based
[2] = target: α4β4 nAChR (Rattus norvegicus, UniProt P09483+P12392); experiment: cell-based; type: cell-based
[3] = target: α2β4 nAChR (Rattus norvegicus, UniProt P12389+P12392); experiment: cell-based; type: cell-based
[4] = target: α3β4 nAChR (Rattus norvegicus, UniProt P04757+P12392); experiment: cell-based; type: cell-based
[5] = target: α9α10 nAChR (Rattus norvegicus, UniProt P43144+Q9JLB5); experiment: cell-based
[6] = target: α6/α3β2β3 nAChR (Rattus norvegicus, UniProt P04757+P12390+P43143); experiment: cell-based; type: cell-based
[7] = target: α4β2 nAChR (Rattus norvegicus, UniProt P09483+P12390); experiment: cell-based
[8] = target: human α6/α3β2β3 nAChR (Homo sapiens, UniProt P17787+P32297+Q15825); experiment: cell-based; type: cell-based
[9] = target: α3β2 nAChR (Rattus norvegicus, UniProt P04757+P12390); experiment: cell-based; type: cell-based; conditions: for IC50: IC50 (half-blocking dose)
[10] = target: α2β2 nAChR (Rattus norvegicus, UniProt P12389+P12390); experiment: cell-based; type: cell-based
[11] = target: α6/α3β4 nAChR (Rattus norvegicus, UniProt P04757+P12392+P43143); experiment: cell-based; type: cell-based
[12] = tested on: other nAChRs subtypes; type: cell-based; conditions: read-out: IC50 on other nAChRs subtypes (no blocking activity)
[13] = target: α9α10 acetylcholine receptor (Homo sapiens, UniProt Q9GZZ6+Q9UGM1); conditions: read-out: half-blocking dose IC50; cited from earlier work
[14] = target: α6/α3β2β3 acetylcholine receptor; conditions: read-out: half-blocking dose IC50; cited from earlier work
[15] = target: α6/α3β4 acetylcholine receptor; conditions: read-out: half-blocking dose IC50; cited from earlier work
[16] = target: α3β2 acetylcholine receptor (Homo sapiens, UniProt P17787+P32297); conditions: read-out: half-blocking dose IC50; cited from earlier work
[17] = target: α3β4 acetylcholine receptor; conditions: read-out: half-blocking dose IC50; cited from earlier work
[18] = target: α7 acetylcholine receptor (Homo sapiens, UniProt P36544); conditions: read-out: half-blocking dose IC50; cited from earlier work

Chain of α6/α3β2β3 nAChR (P04757 whole entry, looked up): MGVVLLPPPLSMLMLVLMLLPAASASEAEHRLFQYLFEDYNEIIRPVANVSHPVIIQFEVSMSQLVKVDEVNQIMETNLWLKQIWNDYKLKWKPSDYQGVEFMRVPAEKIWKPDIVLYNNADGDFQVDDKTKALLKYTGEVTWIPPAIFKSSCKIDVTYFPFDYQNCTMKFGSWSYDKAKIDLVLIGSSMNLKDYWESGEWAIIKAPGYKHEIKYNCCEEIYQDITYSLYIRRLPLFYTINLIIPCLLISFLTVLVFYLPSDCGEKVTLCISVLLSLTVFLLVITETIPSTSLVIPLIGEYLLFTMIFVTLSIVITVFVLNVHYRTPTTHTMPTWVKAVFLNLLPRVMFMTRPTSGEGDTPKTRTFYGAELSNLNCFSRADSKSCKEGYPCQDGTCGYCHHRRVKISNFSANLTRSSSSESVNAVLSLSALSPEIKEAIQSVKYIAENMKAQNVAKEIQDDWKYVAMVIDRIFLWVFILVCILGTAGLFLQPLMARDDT
Chain of α6/α3β2β3 nAChR (P12390 whole entry, looked up): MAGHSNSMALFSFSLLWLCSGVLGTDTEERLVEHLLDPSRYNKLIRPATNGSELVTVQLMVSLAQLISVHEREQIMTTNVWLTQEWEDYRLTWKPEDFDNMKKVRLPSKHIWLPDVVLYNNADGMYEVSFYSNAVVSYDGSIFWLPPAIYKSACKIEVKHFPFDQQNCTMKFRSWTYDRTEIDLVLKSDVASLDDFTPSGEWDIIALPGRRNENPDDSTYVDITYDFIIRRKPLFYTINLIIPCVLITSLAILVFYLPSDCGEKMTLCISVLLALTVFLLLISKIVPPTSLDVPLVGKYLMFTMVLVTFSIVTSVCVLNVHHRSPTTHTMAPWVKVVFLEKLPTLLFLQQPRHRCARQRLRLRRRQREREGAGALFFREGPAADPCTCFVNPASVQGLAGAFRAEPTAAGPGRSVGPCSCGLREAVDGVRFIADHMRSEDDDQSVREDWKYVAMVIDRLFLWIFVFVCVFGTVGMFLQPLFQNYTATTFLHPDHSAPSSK
Chain of α6/α3β2β3 nAChR (P43143 whole entry, looked up): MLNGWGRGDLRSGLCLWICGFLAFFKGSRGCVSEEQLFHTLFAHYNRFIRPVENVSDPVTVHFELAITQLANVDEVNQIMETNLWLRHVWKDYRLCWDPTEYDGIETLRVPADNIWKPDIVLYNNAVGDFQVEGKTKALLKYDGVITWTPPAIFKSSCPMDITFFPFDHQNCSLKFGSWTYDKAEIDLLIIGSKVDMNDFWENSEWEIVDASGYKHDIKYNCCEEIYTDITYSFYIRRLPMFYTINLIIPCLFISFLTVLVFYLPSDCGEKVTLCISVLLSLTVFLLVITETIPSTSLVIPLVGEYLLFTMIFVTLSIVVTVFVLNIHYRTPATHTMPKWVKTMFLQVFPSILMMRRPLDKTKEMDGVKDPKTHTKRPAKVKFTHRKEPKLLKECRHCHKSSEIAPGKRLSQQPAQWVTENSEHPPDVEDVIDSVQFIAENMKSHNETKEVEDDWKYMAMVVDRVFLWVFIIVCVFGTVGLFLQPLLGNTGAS
Chain of α6/α3β4 nAChR (P04757 whole entry, looked up): as the sequence (P04757 whole entry, looked up) above
Chain of α6/α3β4 nAChR (P12392 whole entry, looked up): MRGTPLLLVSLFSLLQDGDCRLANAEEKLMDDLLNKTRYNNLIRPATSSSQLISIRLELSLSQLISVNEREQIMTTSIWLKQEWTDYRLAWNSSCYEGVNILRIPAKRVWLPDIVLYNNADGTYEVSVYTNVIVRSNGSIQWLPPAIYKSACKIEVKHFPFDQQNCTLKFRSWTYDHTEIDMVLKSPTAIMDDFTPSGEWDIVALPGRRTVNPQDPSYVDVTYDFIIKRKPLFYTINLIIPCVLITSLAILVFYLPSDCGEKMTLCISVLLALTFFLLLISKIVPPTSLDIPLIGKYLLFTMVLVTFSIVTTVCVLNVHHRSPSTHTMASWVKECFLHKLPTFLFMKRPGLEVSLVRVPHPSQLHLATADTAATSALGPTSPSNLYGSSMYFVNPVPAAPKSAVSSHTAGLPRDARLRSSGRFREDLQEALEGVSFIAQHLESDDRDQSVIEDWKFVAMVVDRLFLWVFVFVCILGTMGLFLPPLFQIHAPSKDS
Chain of α6/α3β4 nAChR (P43143 whole entry, looked up): as the sequence (P43143 whole entry, looked up) above
Chain of α4β4 nAChR (P09483 31-630 limits assumed): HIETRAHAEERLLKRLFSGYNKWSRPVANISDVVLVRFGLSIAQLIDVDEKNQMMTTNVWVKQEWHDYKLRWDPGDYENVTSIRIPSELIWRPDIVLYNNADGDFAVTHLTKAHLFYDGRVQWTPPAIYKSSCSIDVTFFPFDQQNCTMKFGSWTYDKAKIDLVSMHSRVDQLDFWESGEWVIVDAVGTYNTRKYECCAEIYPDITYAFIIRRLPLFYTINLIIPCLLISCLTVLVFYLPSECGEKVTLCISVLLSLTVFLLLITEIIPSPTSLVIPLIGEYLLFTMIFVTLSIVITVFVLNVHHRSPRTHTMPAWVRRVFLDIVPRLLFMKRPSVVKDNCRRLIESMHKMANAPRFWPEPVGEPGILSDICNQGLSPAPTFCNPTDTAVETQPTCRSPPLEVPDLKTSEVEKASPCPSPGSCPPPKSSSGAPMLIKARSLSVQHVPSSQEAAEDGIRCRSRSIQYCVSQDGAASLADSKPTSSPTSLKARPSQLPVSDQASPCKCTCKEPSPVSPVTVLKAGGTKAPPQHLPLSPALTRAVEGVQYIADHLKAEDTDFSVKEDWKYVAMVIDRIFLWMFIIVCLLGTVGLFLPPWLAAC
Chain of α4β4 nAChR (P12392 21-495 limits assumed): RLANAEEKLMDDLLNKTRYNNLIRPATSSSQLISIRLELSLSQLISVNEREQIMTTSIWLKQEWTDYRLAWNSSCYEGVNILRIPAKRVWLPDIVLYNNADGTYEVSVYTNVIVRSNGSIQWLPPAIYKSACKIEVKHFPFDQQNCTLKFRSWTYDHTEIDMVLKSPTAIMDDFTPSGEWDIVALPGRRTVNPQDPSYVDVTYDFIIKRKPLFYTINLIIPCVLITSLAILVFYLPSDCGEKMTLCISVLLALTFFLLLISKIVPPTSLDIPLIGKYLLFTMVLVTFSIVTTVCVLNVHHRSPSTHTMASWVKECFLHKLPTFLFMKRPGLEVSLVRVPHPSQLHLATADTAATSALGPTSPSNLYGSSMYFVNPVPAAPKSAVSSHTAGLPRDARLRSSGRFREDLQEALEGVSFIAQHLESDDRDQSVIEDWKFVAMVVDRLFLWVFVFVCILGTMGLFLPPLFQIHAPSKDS
Chain of α2β4 nAChR (P12389 28-511 limits assumed): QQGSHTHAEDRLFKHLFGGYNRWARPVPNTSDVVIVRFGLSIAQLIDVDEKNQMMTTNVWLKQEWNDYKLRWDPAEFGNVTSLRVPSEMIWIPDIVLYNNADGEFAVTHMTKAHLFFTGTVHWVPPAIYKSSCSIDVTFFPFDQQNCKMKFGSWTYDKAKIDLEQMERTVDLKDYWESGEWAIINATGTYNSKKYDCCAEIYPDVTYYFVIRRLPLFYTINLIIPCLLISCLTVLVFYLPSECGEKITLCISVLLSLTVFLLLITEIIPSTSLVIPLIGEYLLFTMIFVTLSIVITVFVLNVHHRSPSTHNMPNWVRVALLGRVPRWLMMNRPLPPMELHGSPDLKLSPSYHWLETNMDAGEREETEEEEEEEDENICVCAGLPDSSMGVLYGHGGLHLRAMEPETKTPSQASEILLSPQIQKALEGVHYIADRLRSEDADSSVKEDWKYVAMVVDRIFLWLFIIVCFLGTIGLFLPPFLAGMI
Chain of α2β4 nAChR (P12392 21-495 limits assumed): as the sequence (P12392 21-495 limits assumed) above
Chain of α7 nAChR (Q05941 23-502 limits assumed): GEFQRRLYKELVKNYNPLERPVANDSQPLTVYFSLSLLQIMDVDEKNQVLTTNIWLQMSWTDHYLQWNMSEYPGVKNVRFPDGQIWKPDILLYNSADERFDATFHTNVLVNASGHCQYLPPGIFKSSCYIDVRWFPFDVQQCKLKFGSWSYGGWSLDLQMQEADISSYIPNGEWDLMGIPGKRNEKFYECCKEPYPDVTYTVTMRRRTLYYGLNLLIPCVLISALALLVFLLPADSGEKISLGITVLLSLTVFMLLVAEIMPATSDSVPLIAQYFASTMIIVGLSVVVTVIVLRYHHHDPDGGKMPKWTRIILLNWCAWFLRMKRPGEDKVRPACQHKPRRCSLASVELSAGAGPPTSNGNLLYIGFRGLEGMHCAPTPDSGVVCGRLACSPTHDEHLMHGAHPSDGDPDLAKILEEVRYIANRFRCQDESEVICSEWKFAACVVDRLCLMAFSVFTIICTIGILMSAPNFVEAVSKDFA
Chain of α3β4 nAChR (P04757 26-499 limits assumed): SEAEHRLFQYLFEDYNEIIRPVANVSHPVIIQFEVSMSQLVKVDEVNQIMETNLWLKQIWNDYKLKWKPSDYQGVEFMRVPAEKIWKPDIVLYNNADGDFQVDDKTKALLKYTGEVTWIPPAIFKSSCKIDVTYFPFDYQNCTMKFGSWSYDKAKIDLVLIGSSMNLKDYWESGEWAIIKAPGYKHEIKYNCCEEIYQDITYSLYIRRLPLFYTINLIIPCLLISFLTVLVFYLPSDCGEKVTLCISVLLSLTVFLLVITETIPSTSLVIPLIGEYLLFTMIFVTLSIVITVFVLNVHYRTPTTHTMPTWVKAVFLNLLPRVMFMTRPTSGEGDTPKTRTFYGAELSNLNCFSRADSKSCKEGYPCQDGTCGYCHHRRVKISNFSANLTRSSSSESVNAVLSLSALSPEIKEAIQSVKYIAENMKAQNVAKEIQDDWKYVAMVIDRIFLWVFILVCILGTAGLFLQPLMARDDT
Chain of α3β4 nAChR (P12392 21-495 limits assumed): as the sequence (P12392 21-495 limits assumed) above

## CC(C)C[C@@H]1NC(=O)[C@H](CC(=O)O)NC(=O)[C@@H]2CCCN2C(=O)[C@H](Cc2c[nH]cn2)NC(=O)[C@H](CCCCN)NC(=O)[C@H](CC(N)=O)NC(=O)[C@H](CCCNC(=N)N)NC(=O)[C@@H]2CSSC[C@H](NC(=O)CN)C(=O)N[C@@H](CSSC[C@@H](C(=O)NCC(N)=O)NC1=O)C(=O)N[C@@H](CO)C(=O)N[C@@H](CC(=O)O)C(=O)N1CCC[C@H]1C(=O)N1CCC[C@H]1C(=O)N2 [TxIB(G)] (H-GCCSDPPCRNKHPDLCG-NH2; disulfide 2-8, 3-16)
[1]
  IC50: > 10 µM
[2]
  IC50: > 10 µM
[3]
  IC50: > 10 µM
[4]
  IC50: > 10 µM
[5]
  IC50: > 10 µM
[6]
  IC50: 0.247 µM
  Ratio of half-blocking dose (IC50) between TxIB(G) and TxIB: 8.7
[7]
  IC50: > 10 µM
[8]
  blocking activity on human α6/α3β2β3 nAChR: blocking activity similar to those for rat α6/α3β2β3 nAChR
[9]
  IC50: > 10 µM
[10]
  IC50: > 10 µM
[11]
  IC50: > 10 µM

## CC(C)C[C@@H]1NC(=O)[C@H](CC(=O)O)NC(=O)[C@@H]2CCCN2C(=O)[C@H](Cc2c[nH]cn2)NC(=O)[C@H](CCCCN)NC(=O)[C@H](CC(N)=O)NC(=O)[C@H](CCCNC(=N)N)NC(=O)[C@@H]2CSSC[C@H](NC(=O)CN)C(=O)N[C@@H](CSSC[C@@H](C(N)=O)NC1=O)C(=O)N[C@@H](CO)C(=O)N[C@@H](CC(=O)O)C(=O)N1CCC[C@H]1C(=O)N1CCC[C@H]1C(=O)N2 [TxIB] (H-GCCSDPPCRNKHPDLC-NH2; disulfide 2-8, 3-16)
[4]
  blocking of ACh-gated current: totally does not block; also recorded: no blocking activity
[6]
  Hill slope of dose-response curve: 0.51 (0.41-0.60)
  Ratio of half-blocking dose (IC50) between TxIB(G) and TxIB: 1
  blocking of ACh-gated current: specifically blocked; also recorded: almost total blocked
[8]
  blocking activity on human α6/α3β2β3 nAChR: blocking activity similar to those for rat α6/α3β2β3 nAChR
[9]
  blocking of ACh-gated current: totally does not block; also recorded: no blocking activity
[12]
  IC50: > 10 µM
[11]
  blocking of ACh-gated current: totally does not block; also recorded: no blocking activity

## CC(C)C[C@@H]1NC(=O)[C@H](CC(=O)O)NC(=O)[C@@H]2CCCN2C(=O)[C@H](Cc2cnc[nH]2)NC(=O)[C@H](CCCCN)NC(=O)[C@H](CC(N)=O)NC(=O)[C@H](CCCNC(=N)N)NC(=O)[C@@H]2CSSC[C@H](NC(=O)CN)C(=O)N[C@@H](CSSC[C@@H](C(N)=O)NC1=O)C(=O)N[C@@H](CO)C(=O)N[C@@H](CC(=O)O)C(=O)N1CCC[C@H]1C(=O)N1CCC[C@H]1C(=O)N2 [TxIB] (H-GCCSDPPCRNKHPDLC-NH2; disulfide 2-8, 3-16)
[1]
  IC50: > 10 µM
[2]
  IC50: > 10 µM
[3]
  IC50: > 10 µM
[4]
  IC50: > 10 µM
[5]
  IC50: > 10 µM
[6]
  IC50: 0.0284 µM
[7]
  IC50: > 10 µM
[9]
  IC50: > 10 µM
[10]
  IC50: > 10 µM
[11]
  IC50: > 10 µM

## CC[C@H](C)[C@@H]1NC(=O)[C@@H]2CCCN2C(=O)[C@H](CO)NC(=O)[C@H](CCSC)NC(=O)[C@H](C)NC(=O)[C@H](CO)NC(=O)[C@@H]2CSSC[C@H](NC(=O)CN)C(=O)N[C@@H](CSSC[C@@H](C(N)=O)NC1=O)C(=O)N[C@@H](CO)C(=O)N[C@@H](Cc1c[nH]cn1)C(=O)N1CCC[C@H]1C(=O)N[C@@H](C(C)C)C(=O)N2 [TxIC]
[1]
  blocking of ACh-gated current: totally does not block; also recorded: no blocking activity
[2]
  blocking of ACh-gated current: totally does not block; also recorded: no blocking activity
[3]
  Hill slope of dose-response curve: 0.20 (1.48-2.42)
[4]
  Hill slope of dose-response curve: 0.19 (0.66-1.44)
  blocking of ACh-gated current: specifically blocked; also recorded: completely blocked
[12]
  IC50: > 10 µM
[11]
  Hill slope of dose-response curve: 0.26 (0.73-1.87)

## GCCSDPRCNYDHPEIC* [Vc1.1]
[13]
  IC50: 0.019 µM
[14]
  IC50: 0.14 µM
[15]
  IC50: 0.98 µM
[16]
  IC50: 7.3 µM

## GCCSHPACNVNNPHIC* [RegIIA]
[17]
  IC50: 0.097 µM
[18]
  IC50: 0.103 µM
[16]
  IC50: 0.033 µM

Reference: patent publication US9469674B2 (HAINAN UNIVERSITY, dated 2016)
